Experimental data reported in US11767310B2, “Nicotinamide RIPK1 inhibitors” (AbbVie Inc., priority 2021, dated 2023).
Like-named read-outs stand apart in the source and are kept apart here.

Tests used:
Assay in all cases: Kinase binding screen
Conditions in all cases: read-out: Percent Control at 100 nM Compound Concentration
PRKCI = PRKCI (Homo sapiens (Human), UniProt P41743)
DAPK2 = DAPK2 (Homo sapiens (Human), UniProt Q9UIK4)
ERK8 = ERK8 (Homo sapiens (Human), UniProt Q8TD08)
MKK7 = MKK7 (Homo sapiens (Human), UniProt O14733)
TXK = TXK (Homo sapiens (Human), UniProt P42681)
TAOK2 = TAOK2 (Homo sapiens (Human), UniProt Q9UL54)
STK35 = STK35 (Homo sapiens (Human), UniProt Q8TDR2)
Sequence of STK35 (Q8TDR2 whole entry): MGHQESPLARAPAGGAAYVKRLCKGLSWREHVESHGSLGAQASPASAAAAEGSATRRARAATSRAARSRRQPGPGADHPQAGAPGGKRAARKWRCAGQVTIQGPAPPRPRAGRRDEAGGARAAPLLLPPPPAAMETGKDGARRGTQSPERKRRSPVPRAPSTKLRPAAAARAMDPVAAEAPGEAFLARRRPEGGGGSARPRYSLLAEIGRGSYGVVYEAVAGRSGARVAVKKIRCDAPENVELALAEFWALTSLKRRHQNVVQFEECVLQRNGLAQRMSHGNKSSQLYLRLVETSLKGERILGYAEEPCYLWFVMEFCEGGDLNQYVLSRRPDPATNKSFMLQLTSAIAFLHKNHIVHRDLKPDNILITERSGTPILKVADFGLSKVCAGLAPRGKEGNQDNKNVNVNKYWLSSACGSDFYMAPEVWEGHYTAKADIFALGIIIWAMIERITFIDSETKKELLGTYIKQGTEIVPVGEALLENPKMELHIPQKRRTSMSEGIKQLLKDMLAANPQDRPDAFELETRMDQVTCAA

HUNK = HUNK (Homo sapiens (Human), UniProt P57058)
Sequence of HUNK (P57058 whole entry): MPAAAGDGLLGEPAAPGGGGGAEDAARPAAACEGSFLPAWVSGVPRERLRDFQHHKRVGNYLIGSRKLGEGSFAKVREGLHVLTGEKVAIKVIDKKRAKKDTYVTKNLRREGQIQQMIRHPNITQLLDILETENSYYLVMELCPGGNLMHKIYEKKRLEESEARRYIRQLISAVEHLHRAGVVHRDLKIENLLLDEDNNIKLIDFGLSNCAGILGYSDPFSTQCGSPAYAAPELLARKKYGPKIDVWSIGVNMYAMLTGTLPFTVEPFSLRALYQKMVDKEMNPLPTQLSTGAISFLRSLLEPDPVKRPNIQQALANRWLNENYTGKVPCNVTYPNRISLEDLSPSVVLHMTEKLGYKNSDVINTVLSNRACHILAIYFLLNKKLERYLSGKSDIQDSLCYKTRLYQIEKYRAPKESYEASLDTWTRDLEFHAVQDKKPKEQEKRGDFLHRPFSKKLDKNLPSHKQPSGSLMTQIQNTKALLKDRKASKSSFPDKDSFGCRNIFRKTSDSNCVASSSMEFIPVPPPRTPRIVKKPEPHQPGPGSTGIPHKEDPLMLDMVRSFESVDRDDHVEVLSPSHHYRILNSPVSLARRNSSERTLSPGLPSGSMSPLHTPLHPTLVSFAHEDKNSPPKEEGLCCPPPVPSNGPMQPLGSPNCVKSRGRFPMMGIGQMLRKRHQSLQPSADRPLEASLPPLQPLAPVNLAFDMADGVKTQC

CDKL3 = CDKL3 (Homo sapiens (Human), UniProt Q8IVW4)
PKN1 = PKN1 (Homo sapiens (Human), UniProt Q16512)
[1] = target: ABL1(F317I)-phosphorylated (Homo sapiens (Human), UniProt P00519, F317I)
GAK = GAK (Homo sapiens (Human), UniProt O14976)
BMPR1B = BMPR1B (Homo sapiens (Human), UniProt O00238)
YANK2 = YANK2 (Homo sapiens (Human), UniProt Q9NY57)
NEK1 = NEK1 (Homo sapiens (Human), UniProt Q96PY6)
RIOK2 = RIOK2 (Homo sapiens (Human), UniProt Q9BVS4)
PIP5K2B = PIP5K2B (Homo sapiens (Human), UniProt P78356)
AMPK-alpha2 = AMPK-alpha2 (Homo sapiens (Human), UniProt P54646)
RIOK3 = RIOK3 (Homo sapiens (Human), UniProt O14730)
Sequence of RIOK3 (O14730 whole entry): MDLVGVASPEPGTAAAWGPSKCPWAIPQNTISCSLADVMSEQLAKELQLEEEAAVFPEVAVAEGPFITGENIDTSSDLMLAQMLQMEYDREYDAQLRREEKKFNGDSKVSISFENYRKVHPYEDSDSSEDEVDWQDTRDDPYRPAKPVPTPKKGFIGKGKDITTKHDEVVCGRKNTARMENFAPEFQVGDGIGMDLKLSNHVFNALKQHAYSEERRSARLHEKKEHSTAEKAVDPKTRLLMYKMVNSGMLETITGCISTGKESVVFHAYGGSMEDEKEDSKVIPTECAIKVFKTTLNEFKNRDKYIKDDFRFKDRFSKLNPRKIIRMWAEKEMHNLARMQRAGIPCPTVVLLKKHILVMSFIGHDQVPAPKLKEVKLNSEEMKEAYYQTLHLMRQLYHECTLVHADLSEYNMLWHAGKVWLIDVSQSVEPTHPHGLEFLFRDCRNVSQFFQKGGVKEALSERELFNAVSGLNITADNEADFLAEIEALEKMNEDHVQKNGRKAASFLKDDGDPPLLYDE

JNK1 = JNK1 (Homo sapiens (Human), UniProt P45983)
[2] = target: ABL1(F317L)-phosphorylated (Homo sapiens (Human), UniProt P00519, F317L)
Sequence of ABL1(F317L)-phosphorylated (P00519 whole entry F317L): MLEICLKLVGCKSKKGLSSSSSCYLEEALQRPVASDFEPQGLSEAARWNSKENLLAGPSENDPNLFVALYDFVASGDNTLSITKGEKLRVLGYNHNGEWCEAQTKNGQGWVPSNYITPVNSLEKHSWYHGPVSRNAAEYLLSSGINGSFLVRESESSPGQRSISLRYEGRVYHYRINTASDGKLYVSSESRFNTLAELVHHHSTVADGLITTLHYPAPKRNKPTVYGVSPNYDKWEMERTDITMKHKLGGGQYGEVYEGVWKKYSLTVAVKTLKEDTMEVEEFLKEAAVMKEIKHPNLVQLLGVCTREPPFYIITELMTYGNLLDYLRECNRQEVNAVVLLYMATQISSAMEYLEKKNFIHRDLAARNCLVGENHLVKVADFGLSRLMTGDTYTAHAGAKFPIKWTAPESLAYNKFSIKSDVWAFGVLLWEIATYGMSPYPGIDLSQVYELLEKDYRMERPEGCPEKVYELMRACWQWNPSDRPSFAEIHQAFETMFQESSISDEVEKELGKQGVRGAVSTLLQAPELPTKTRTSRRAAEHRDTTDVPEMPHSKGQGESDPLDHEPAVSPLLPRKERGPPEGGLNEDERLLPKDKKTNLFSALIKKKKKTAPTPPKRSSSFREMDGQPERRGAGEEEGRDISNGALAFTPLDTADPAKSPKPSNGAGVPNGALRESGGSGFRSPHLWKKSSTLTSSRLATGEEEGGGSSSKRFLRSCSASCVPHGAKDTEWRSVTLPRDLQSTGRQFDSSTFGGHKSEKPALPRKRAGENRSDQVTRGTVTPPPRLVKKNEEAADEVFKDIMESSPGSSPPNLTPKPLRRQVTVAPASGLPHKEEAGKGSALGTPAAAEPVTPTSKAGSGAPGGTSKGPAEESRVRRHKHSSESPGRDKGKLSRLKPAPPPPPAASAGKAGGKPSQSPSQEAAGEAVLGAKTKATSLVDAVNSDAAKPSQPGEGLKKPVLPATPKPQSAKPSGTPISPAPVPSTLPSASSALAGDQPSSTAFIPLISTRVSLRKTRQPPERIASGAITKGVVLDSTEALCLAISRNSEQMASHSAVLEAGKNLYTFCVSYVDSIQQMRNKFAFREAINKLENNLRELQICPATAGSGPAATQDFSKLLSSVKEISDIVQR

CDK8 = CDK8 (Homo sapiens (Human), UniProt P49336)
MYLK = MYLK (Homo sapiens (Human), UniProt Q15746)
MST2 = MST2 (Homo sapiens (Human), UniProt Q13188)
FLT3(D835V) = FLT3(D835V) (Homo sapiens (Human), UniProt P36888, D835V)
FES = FES (Homo sapiens (Human), UniProt P07332)
PIK3CD = PIK3CD (Homo sapiens (Human), UniProt O00329)
ALK = ALK (Homo sapiens (Human), UniProt Q9UM73)
Sequence of ALK (Q9UM73 19-1620): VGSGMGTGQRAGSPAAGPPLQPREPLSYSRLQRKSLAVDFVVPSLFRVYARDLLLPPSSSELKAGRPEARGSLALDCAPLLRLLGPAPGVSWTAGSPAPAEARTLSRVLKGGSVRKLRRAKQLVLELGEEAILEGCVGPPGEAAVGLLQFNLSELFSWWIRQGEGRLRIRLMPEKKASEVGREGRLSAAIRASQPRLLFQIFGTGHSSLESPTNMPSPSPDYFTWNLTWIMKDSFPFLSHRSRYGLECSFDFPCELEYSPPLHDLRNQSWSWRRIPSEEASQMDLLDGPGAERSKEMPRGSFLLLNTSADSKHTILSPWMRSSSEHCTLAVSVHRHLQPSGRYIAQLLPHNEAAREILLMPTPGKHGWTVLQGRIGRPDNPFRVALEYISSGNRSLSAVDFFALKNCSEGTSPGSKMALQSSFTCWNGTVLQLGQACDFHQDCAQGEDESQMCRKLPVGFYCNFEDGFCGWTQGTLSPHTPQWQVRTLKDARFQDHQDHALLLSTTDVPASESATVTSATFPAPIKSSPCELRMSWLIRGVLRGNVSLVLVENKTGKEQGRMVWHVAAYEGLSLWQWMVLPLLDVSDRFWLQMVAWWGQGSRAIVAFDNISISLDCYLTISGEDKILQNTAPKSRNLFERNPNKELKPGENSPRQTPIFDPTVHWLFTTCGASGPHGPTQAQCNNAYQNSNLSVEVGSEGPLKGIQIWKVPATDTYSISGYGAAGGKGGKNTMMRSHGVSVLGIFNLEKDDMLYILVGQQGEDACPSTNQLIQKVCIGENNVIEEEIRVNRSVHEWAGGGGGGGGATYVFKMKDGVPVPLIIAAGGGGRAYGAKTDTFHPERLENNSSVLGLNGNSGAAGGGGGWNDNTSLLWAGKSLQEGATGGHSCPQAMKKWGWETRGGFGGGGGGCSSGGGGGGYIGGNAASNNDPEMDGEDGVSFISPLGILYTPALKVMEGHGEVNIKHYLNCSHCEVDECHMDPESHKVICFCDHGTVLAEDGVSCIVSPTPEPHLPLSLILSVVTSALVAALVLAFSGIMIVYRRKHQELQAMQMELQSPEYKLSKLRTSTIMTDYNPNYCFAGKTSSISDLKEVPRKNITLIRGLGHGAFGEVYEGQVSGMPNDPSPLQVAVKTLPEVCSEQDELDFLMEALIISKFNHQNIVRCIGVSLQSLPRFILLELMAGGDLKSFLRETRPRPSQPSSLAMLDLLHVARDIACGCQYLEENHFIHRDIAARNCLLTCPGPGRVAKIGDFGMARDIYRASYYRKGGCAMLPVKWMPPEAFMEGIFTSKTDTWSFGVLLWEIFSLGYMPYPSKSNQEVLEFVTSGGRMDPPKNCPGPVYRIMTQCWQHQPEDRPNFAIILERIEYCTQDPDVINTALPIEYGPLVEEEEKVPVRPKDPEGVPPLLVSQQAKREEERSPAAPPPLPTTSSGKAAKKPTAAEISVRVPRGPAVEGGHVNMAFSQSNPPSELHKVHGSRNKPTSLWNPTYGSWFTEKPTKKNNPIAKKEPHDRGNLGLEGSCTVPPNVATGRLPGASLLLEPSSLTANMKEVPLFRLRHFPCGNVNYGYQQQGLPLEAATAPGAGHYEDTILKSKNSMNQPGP

PRKR = PRKR (Homo sapiens (Human), UniProt P19525)

Sequence of PRKCI (P41743 whole entry): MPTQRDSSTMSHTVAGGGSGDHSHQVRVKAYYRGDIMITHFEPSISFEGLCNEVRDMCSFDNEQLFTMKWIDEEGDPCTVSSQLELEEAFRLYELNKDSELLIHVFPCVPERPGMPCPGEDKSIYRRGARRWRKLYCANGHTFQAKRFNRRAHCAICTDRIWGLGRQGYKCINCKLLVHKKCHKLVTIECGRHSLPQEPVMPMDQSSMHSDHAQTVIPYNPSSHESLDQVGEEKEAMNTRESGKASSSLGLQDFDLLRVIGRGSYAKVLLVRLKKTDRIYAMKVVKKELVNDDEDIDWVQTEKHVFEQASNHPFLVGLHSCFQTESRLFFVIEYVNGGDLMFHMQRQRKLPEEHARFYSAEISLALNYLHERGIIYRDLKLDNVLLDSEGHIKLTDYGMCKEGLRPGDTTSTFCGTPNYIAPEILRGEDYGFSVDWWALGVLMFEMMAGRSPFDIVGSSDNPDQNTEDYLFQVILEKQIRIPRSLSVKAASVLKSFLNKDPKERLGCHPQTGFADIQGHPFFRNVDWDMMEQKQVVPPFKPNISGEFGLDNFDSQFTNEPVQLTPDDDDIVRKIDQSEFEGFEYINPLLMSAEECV

For `CN(C[C@@H](O)Cc1ccccc1)C(=O)c1cncc(C#Cc2cnn(C(F)F)c2)c1` [Example 2, (S)-5-((1-(difluoromethyl)-1H-pyrazol-4-yl)ethynyl)-N-(2-hydroxy-3-phenylpropyl)-N-methylnicotinamide], the remaining activity at 0.1 µM (PRKCI; PRKCI) was 96%, the remaining activity at 0.1 µM (DAPK2; DAPK2) was 100% and the remaining activity at 0.1 µM (ERK8; ERK8) was 100%. The remaining activity at 0.1 µM (MKK7; MKK7) was 98%, the remaining activity at 0.1 µM (TXK; TXK) was 100% and the remaining activity at 0.1 µM (TAOK2; TAOK2) was 84%. It also gave a remaining activity at 0.1 µM (STK35; STK35) of 99%, a remaining activity at 0.1 µM (HUNK; HUNK) of 82% and a remaining activity at 0.1 µM (CDKL3; CDKL3) of 100%. For the same compound, the remaining activity at 0.1 µM (PKN1; PKN1) was 91%, the remaining activity at 0.1 µM ([1]; ABL1(F317I)-phosphorylated) was 100% and the remaining activity at 0.1 µM (GAK; GAK) was 100%. The remaining activity at 0.1 µM (BMPR1B; BMPR1B) was 98%, the remaining activity at 0.1 µM (YANK2; YANK2) was 100% and the remaining activity at 0.1 µM (NEK1; NEK1) was 100%. The remaining activity at 0.1 µM (RIOK2; RIOK2) was 95%, the remaining activity at 0.1 µM (PIP5K2B; PIP5K2B) was 100% and the remaining activity at 0.1 µM (AMPK-alpha2; AMPK-alpha2) was 89%. It also gave a remaining activity at 0.1 µM (RIOK3; RIOK3) of 100%, a remaining activity at 0.1 µM (JNK1; JNK1) of 92% and a remaining activity at 0.1 µM ([2]; ABL1(F317L)-phosphorylated) of 82%. The remaining activity at 0.1 µM (CDK8; CDK8) was 10%, the remaining activity at 0.1 µM (MYLK; MYLK) was 87% and the remaining activity at 0.1 µM (MST2; MST2) was 100%. It also gave a remaining activity at 0.1 µM (FLT3(D835V); FLT3(D835V)) of 100%, a remaining activity at 0.1 µM (FES; FES) of 100% and a remaining activity at 0.1 µM (PIK3CD; PIK3CD) of 99%. For the same compound, the remaining activity at 0.1 µM (ALK; ALK) was 100% and the remaining activity at 0.1 µM (PRKR; PRKR) was 100%.
In the case of `CN(C[C@H](Cc1ccccc1)OP(=O)(O)O)C(=O)c1cncc(C#Cc2cnn(C(F)F)c2)c1` [Example 19, (S)-1-(5-((1-(difluoromethyl)-1H-pyrazol-4-yl)ethynyl)-N-methylnicotinamido)-3-phenylpropan-2-yl dihydrogen phosphate], the remaining activity at 0.1 µM (PRKCI) is reported as 92%, the remaining activity at 0.1 µM (DAPK2) is reported as 90% and the remaining activity at 0.1 µM (ERK8) is reported as 100%. For the same compound, the remaining activity at 0.1 µM (MKK7) was 96%, the remaining activity at 0.1 µM (TXK) was 100% and the remaining activity at 0.1 µM (TAOK2) was 77%. For the same compound, the remaining activity at 0.1 µM (STK35) was 100%, the remaining activity at 0.1 µM (HUNK) was 96% and the remaining activity at 0.1 µM (CDKL3) was 97%. It also gave a remaining activity at 0.1 µM (PKN1) of 100%, a remaining activity at 0.1 µM [1] of 98% and a remaining activity at 0.1 µM (GAK) of 100%. It also gave a remaining activity at 0.1 µM (BMPR1B) of 99%, a remaining activity at 0.1 µM (YANK2) of 95% and a remaining activity at 0.1 µM (NEK1) of 100%. For the same compound, the remaining activity at 0.1 µM (RIOK2) was 95%, the remaining activity at 0.1 µM (PIP5K2B) was 95% and the remaining activity at 0.1 µM (AMPK-alpha2) was 100%. For the same compound, the remaining activity at 0.1 µM (RIOK3) was 100%, the remaining activity at 0.1 µM (JNK1) was 87% and the remaining activity at 0.1 µM [2] was 88%. For the same compound, the remaining activity at 0.1 µM (CDK8) was 98%, the remaining activity at 0.1 µM (MYLK) was 86% and the remaining activity at 0.1 µM (MST2) was 99%. It also gave a remaining activity at 0.1 µM (FLT3(D835V)) of 100%, a remaining activity at 0.1 µM (FES) of 100% and a remaining activity at 0.1 µM (PIK3CD) of 85%. It also gave a remaining activity at 0.1 µM (ALK) of 100% and a remaining activity at 0.1 µM (PRKR) of 97%.
